US12473291B2 (priority 2019, dated 2025)
Like-named read-outs stand apart in the source and are kept apart here.

Assays:
KM mice = assay: animal or person; assay type: in vivo
SD rats = assay: animal or person; assay type: in vivo; details: for duration and recovery time compared with remimazolam / effective dose compared with remimazolam: rats, tail vein, in words
[1] = KM mice, single tail vein injection at 2×ED50, time from disappearance to recovery of righting reflex
[2] = KM mice, single tail vein injection at 2×ED50, time from recovery of righting reflex to free crawling
[3] = Mus musculus, KM mice (male, 18-22 g), injection via the tail vein, disappearance of righting reflex, read-out: ED50
[4] = Rattus norvegicus, SD rats (male, 220-300 g), injection via the tail vein, disappearance of righting reflex, read-out: ED50
[5] = SD rats, single tail vein injection at 2×ED50, time from disappearance to recovery of righting reflex
[6] = SD rats, single tail vein injection at 2×ED50, time from recovery of righting reflex to free crawling

Row | SMILES | 2ED50 duration (KM mice; [1]) | 2ED50 recovery time (KM mice; [2]) | Quality of recovery (KM mice; KM mice, tail vein injection) | ED50 (KM mice; [3]) | ED50 (SD rats; [4]) | 2ED50 duration (SD rats; [5]) | 2ED50 recovery time (SD rats; [6]) | Quality of recovery (SD rats; SD rats, tail vein injection) | also measured
1 | CCOC(=O)C(C)OC(=O)CC[C@@H]1N=C(c2ccccn2)c2cc(C)c(OC)cc2-n2c(C)cnc21 (stereo partly drawn) [Example 81, 1-Ethoxy-1-oxopropane-2-yl3-((4S)-9-methoxy-1,8-dimethyl-6-(pyridine-2-yl)-4H-benzo[f]imidazo[1,2-a][1,4]diaza-4-ylpropionate malonate] | 3.49 min | 2.43 min | +++ (“+++” means 3-5 min) | 31.1 mg/kg | 6.2 mg/kg | 2.43 min | 2.09 min | +++ (“+++” means 3-5 min) | –
2 | COC(=O)C(OC(=O)CC[C@@H]1N=C(c2ccccn2)c2cc(Br)c(OC(F)(F)F)c(C)c2-n2c(C)cnc21)C1CCSC1 (stereo partly drawn) [Example 74, 2-methoxy-2-oxo-1-(tetrahydrothiophene-3-yl)ethyl 3-((4S)-8-bromo-1,10-dimethyl-6-(pyridine-2-yl)-9-(trifluoromethoxy)-4H-benzo[f]imidazo[1,2-a][1,4]diazapin-4-yl)propionate stearate] | 3.42 min | 2.17 min | ++ (“++” means 1-3 min) | 24.5 mg/kg | 5.7 mg/kg | 2.67 min | 2.54 min | +++ (“+++” means 3-5 min) | –
3 | COC(=O)OCOC(=O)CC[C@@H]1N=C(c2ccccn2)c2cc(Br)ccc2-n2c(C)cnc21 [Example 34] | 1.31 min | 1.23 min | – | 14.4 mg/kg | 3.4 mg/kg | 1.21 min | 1.01 min | + (“+” means <1 min) | duration and recovery time compared with remimazolam (KM mice; mice, tail vein, in words): significantly shorter; effective dose compared with remimazolam (KM mice; mice, tail vein, in words): significantly lower; duration and recovery time compared with remimazolam (SD rats): significantly shorter; effective dose compared with remimazolam (SD rats): significantly lower
4 | CCCOC(=O)C1(OC(=O)CC[C@@H]2N=C(c3ccccn3)c3c(cc(OC(F)(F)F)c(Cl)c3C)-n3c(C)cnc32)CC1 [Example 75] | 3.53 min | 1.58 min | +++ (“+++” means 3-5 min) | 29.1 mg/kg | 5.8 mg/kg | 2.26 min | 2.15 min | +++ (“+++” means 3-5 min) | –
5 | COC(=O)OCOC(=O)CC[C@@H]1N=C(c2ccccn2)c2cc(Cl)c(F)cc2-n2c(C)cnc21 [Example 70, ((Methoxycarbonyl)oxy)methyl 3-((4S)-8-chloro-9-fluoro-1-methyl-6-(pyridine-2-yl)-4H-benzo[f]imidazo [1,2-a][1,4]diaza-4-ylpropionate borate] | – | – | – | – | – | – | – | – | ED50 (KM mice; Mus musculus): 26.7 mg/kg; 2ED50 duration (KM mice; mouse, in vivo): 3.27 min; 2ED50 recovery time (KM mice; mouse, in vivo): 2.54 min; Quality of recovery (KM mice; mouse, in vivo): +++ (key: “+” means <1 mm; “++” means 1-3 min; “+++” means 3-5 min; “++++” means 5-10 min; “+++++” means >10 mm); ED50 (SD rats; Rattus norvegicus): 4.6 mg/kg; 2ED50 duration (SD rats; rat, in vivo): 3.56 min; 2ED50 recovery time (SD rats; rat, in vivo): 2.57 min; Quality of recovery (SD rats; rat, in vivo): +++ (key: “+” means <1 mm; “++” means 1-3 min; “+++” means 3-5 min; “++++” means 5-10 min; “+++++” means >10 mm)
6 | Cc1c(Cl)c(C(F)(F)F)cc2c1C(c1ccccn1)=N[C@@H](CCC(=O)OC(C)C(=O)OC(C)C)c1ncc(C)n1-2 (stereo partly drawn) [Example 78, 1-Isopropoxy-1-oxopropane-2-yl3-((4S)-8-chloro-1,7-dimethyl-6-(pyridine-2-yl)-9-(trifluoromethyl)-4H-benzo[f]imidazo[1,2-a][1,4]diaza-4-ylpropionate nicotinate] | – | – | – | – | – | – | – | – | ED50 (KM mice; Mus musculus): 28.2 mg/kg; 2ED50 duration (KM mice; mouse, in vivo): 3.39 min; 2ED50 recovery time (KM mice; mouse, in vivo): 1.36 min; Quality of recovery (KM mice; mouse, in vivo): ++ (key: “+” means <1 mm; “++” means 1-3 min; “+++” means 3-5 min; “++++” means 5-10 min; “+++++” means >10 mm); ED50 (SD rats; Rattus norvegicus): 6.2 mg/kg; 2ED50 duration (SD rats; rat, in vivo): 2.55 min; 2ED50 recovery time (SD rats; rat, in vivo): 2.38 min; Quality of recovery (SD rats; rat, in vivo): ++ (key: “+” means <1 mm; “++” means 1-3 min; “+++” means 3-5 min; “++++” means 5-10 min; “+++++” means >10 mm)
7 | COC(=O)C1(OC(=O)CC[C@@H]2N=C(c3ccccn3)c3c(Cl)cc(OC(F)(F)F)cc3-n3c(C)cnc32)CC1.O=C(O)O [Example 43] | 6.01 min | 2.13 min | ++++ (“++++” means 5-10 min) | – | – | 3.01 min | 2.41 min | ++ (“++” means 1-3 min) | ED50 (KM mice; KM mice (male, 18-22 g), injection via the tail vein, disappearance of righting reflex): 29.5 mg/kg; ED50 (SD rats; SD rats (male, 220-300 g), injection via the tail vein, disappearance of righting reflex): 6.5 mg/kg
8 | COC(=O)C1(OC(=O)CC[C@@H]2N=C(c3ccccn3)c3cc(Cl)c(Cl)c(Cl)c3-n3c(C)cnc32)CC1 [Example 46] | 1.21 min | 1.08 min | +++ (“+++” means 3-5 min) | 32 mg/kg | 6.3 mg/kg | 3.17 min | 2.28 min | + (“+” means <1 min) | duration and recovery time compared with remimazolam (SD rats): significantly shorter; effective dose compared with remimazolam (SD rats): significantly lower
9 | CCOC(=O)COC(=O)CC[C@@H]1N=C(c2ccccn2)c2cc(Br)c(Br)cc2-n2c(C)cnc21 [Example 21] | 3.08 min | 2.01 min | ++ (“++” means 1-3 min) | 25.9 mg/kg | 4.2 mg/kg | 3.08 min | 2.27 min | ++ (“++” means 1-3 min) | –
10 | Cc1cc2c(c(C)c1C)C(c1ccccn1)=N[C@@H](CCC(=O)OCC(=O)OC(C)C)c1ncc(C)n1-2 [Example 76, 2-Isopropoxy-2-oxoethyl-3-(((4S)-1,7,8,9-tetramethyl-6-(pyridine-2-yl)-4H-benzo[f]imidazo[1,2-a][1,4]diaza-4-ylpropionate phosphate] | 3.28 min | 2.49 min | ++++ (“++++” means 5-10 min) | 27.8 mg/kg | 6.3 mg/kg | 2.47 min | 2.23 min | +++ (“+++” means 3-5 min) | –
11 | C/C=C/C1CC(OCOC(=O)COC(=O)CC[C@@H]2N=C(c3ccccn3)c3cc(Br)c(Cl)cc3-n3c(C)cnc32)C(Br)CC1C(F)(F)F (stereo partly drawn) [Example 84, 2-(((2-Bromo-5-((E)-propan-1-en-1-yl)-4-(trifluoromethyl)cyclohexyl)oxy)methoxy)-2-oxoethyl-3-((4S)-8-bromo-9-chloro-1-methyl-6-(pyridine-2-yl)-4H-benzo[f]imidazo[1,2-a][1,4]diaza-4-yl)propionate] | 3.16 min | 2.17 min | +++ (“+++” means 3-5 min) | 28.8 mg/kg | 6.23 mg/kg | 2.18 min | 1.58 min | ++ (“++” means 1-3 min) | –
